# Source: the supplement of paper PMC11451515
# Tested on: SEM cells
# Assay: cell viability relative to DMSO control; higher = less cytotoxic
# Details: 48 h
# Method in brief: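 In 1536-well plates, 5 μl of leukemia cells were seeded per well: 500 cells/well for NOMO1 or SEM and 1000 cells/well for P12-Ichikawa. Each line had first been adapted for at least four passages in each medium. Library compounds in DMSO were pin-dosed at 11 threefold concentrations between 47 μM and 0.79 nM, and CellTiter-Glo One luminescence was read after 48 h at 37°C. Viability is a per-plate percentage relative to DMSO wells, with cell-free wells as background.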
# [1] = HPLM + 10% dialyzed FBS, 0.000781 µM
# [2] = HPLM + 10% dialyzed FBS, 0.00234 µM
# [3] = HPLM + 10% dialyzed FBS, 0.00702 µM
# [4] = HPLM + 10% dialyzed FBS, 0.0211 µM
# [5] = HPLM + 10% dialyzed FBS, 0.0632 µM
# [6] = HPLM + 10% dialyzed FBS, 0.19 µM
# [7] = HPLM + 10% dialyzed FBS, 0.569 µM
# [8] = HPLM + 10% dialyzed FBS, 1.71 µM
# [9] = HPLM + 10% dialyzed FBS, 5.12 µM
# [10] = HPLM + 10% dialyzed FBS, 15.4 µM
# [11] = HPLM + 10% dialyzed FBS, 46.1 µM
# [12] = RPMI 5 mM glucose + 10% FBS, 0.000781 µM
# [13] = RPMI 5 mM glucose + 10% FBS, 0.00234 µM
# [14] = RPMI 5 mM glucose + 10% FBS, 0.00702 µM
# [15] = RPMI 5 mM glucose + 10% FBS, 0.0211 µM
# [16] = RPMI 5 mM glucose + 10% FBS, 0.0632 µM
# [17] = RPMI 5 mM glucose + 10% FBS, 0.19 µM
# [18] = RPMI 5 mM glucose + 10% FBS, 0.569 µM
# [19] = RPMI 5 mM glucose + 10% FBS, 1.71 µM
# [20] = RPMI 5 mM glucose + 10% FBS, 5.12 µM
# [21] = RPMI 5 mM glucose + 10% FBS, 15.4 µM
# [22] = RPMI 5 mM glucose + 10% FBS, 46.1 µM
# [23] = RPMI 5 mM glucose + 10% dialyzed FBS, 0.000781 µM
# [24] = RPMI 5 mM glucose + 10% dialyzed FBS, 0.00234 µM
# [25] = RPMI 5 mM glucose + 10% dialyzed FBS, 0.00702 µM
# [26] = RPMI 5 mM glucose + 10% dialyzed FBS, 0.0211 µM
# [27] = RPMI 5 mM glucose + 10% dialyzed FBS, 0.0632 µM
# [28] = RPMI 5 mM glucose + 10% dialyzed FBS, 0.19 µM
# [29] = RPMI 5 mM glucose + 10% dialyzed FBS, 0.569 µM
# [30] = RPMI 5 mM glucose + 10% dialyzed FBS, 1.71 µM
# [31] = RPMI 5 mM glucose + 10% dialyzed FBS, 5.12 µM
# [32] = RPMI 5 mM glucose + 10% dialyzed FBS, 15.4 µM
# [33] = RPMI 5 mM glucose + 10% dialyzed FBS, 46.1 µM
Structure (SMILES),cell viability [1],cell viability [2],cell viability [3],cell viability [4],cell viability [5],cell viability [6],cell viability [7],cell viability [8],cell viability [9],cell viability [10],cell viability [11],cell viability [12],cell viability [13],cell viability [14],cell viability [15],cell viability [16],cell viability [17],cell viability [18],cell viability [19],cell viability [20],cell viability [21],cell viability [22],cell viability [23],cell viability [24],cell viability [25],cell viability [26],cell viability [27],cell viability [28],cell viability [29],cell viability [30],cell viability [31],cell viability [32],cell viability [33]
Cc1cc(Nc2ncc3c(n2)N(C)C(=O)N(c2cc(NC(=O)c4cccc(C(F)(F)F)c4)ccc2C)C3)n(C)n1,88%,105%,101%,88.2%,115%,82.3%,50.1%,17.8%,10.8%,5.81%,3.72%,101%,114%,111%,95%,116%,79.4%,40.2%,11.9%,7.97%,5.5%,3.3%,108%,117%,114%,93.8%,128%,81.3%,41%,11.5%,6.61%,4.65%,2.51%
C[C@H](CCC(=O)O)[C@H]1CC[C@H]2[C@@H]3[C@H](O)C[C@@H]4C[C@H](O)CC[C@]4(C)[C@H]3CC[C@]12C,79.7%,80.7%,96.3%,80.3%,99.9%,84%,95%,92.5%,93.5%,84.1%,75.5%,75.4%,81.9%,90.3%,96.9%,87.6%,76.5%,91%,80.2%,99.1%,81.9%,67%,87.5%,93.7%,105%,95%,85.5%,79.4%,91.4%,92.2%,95.3%,95.1%,79.7%
NC1=NC(=O)N2CC12 (stereo unspecified),84.2%,79.8%,87.7%,86.3%,87.2%,76.5%,94.9%,60.6%,34.9%,3.13%,2.28%,106%,82.3%,86.8%,104%,85.1%,82.6%,85.2%,43%,25.6%,2.22%,2.07%,77.3%,79.6%,82.5%,78.7%,79.3%,69.3%,84.1%,51.4%,23.9%,1.65%,1.54%
CC(=O)SC[C@@H](C)C(=O)N1CCC[C@H]1C(=O)N[C@@H](Cc1ccccc1)C(=O)O,116%,107%,99.6%,110%,115%,103%,111%,106%,107%,66.7%,83.3%,83.8%,86.2%,95.3%,98.1%,105%,97.7%,110%,97.2%,113%,87.1%,72.6%,95.1%,98.3%,114%,104%,104%,103%,107%,101%,110%,101%,85.7%
CC/C=C\C[C@H]1C(=O)CC[C@@H]1CC(=O)OC,76%,118%,130%,130%,125%,118%,125%,118%,113%,114%,103%,60.3%,109%,101%,114%,109%,100%,126%,102%,99.3%,109%,88.9%,78%,112%,137%,147%,153%,127%,135%,120%,122%,112%,120%
C[C@@H]1[C@H]\2[C@H](O)[C@H]3[C@H](N(C)C)\C(=C(C(N)=O)/C(=O)[C@@]3(O)\C(=C2C(=O)C4=C(O)C=CC=C14)O)O,,,,,,,,,,,,115%,131%,110%,127%,109%,145%,122%,121%,126%,102%,123%,123%,122%,123%,122%,108%,133%,149%,144%,113%,89.9%,93.4%
C[C@]12CCC3c4ccc(O)cc4CCC3C1CCC2=O (stereo partly specified),70.1%,81.6%,88.8%,84.5%,91.4%,73.6%,62.2%,77.8%,71.7%,42.2%,58.9%,94%,92.3%,96.3%,104%,88.9%,106%,82%,80.7%,81.2%,64.6%,85%,103%,95.4%,98.4%,103%,116%,99.6%,80.7%,82.8%,93.2%,35.6%,71.4%
COc1cc2c(cc1OC)[C@@H]1Cc3ccc(OC)c(OC)c3CN1CC2,94.1%,123%,118%,123%,114%,119%,121%,122%,117%,109%,109%,110%,108%,103%,111%,104%,109%,99.3%,93.9%,99.4%,102%,78.4%,97.9%,108%,113%,112%,129%,124%,108%,133%,122%,120%,82.2%
CC(C)c1onc(-c2c(Cl)cccc2Cl)c1COc1ccc(/C=C/c2cccc(C(=O)O)c2)c(Cl)c1,122%,130%,114%,120%,121%,129%,115%,116%,125%,108%,91.5%,117%,119%,109%,128%,127%,120%,105%,120%,115%,106%,85.7%,119%,134%,120%,146%,132%,128%,118%,117%,115%,104%,95.1%
CNC(=O)c1ccc2c(c1)NC(=O)/C2=C(\Nc1cccc(CN(C)C)c1)c1ccccc1,74.4%,93.6%,98.8%,109%,85.3%,89.9%,78.1%,57.7%,4.44%,23.4%,1.26%,97%,94.9%,97.3%,106%,93.5%,89.7%,94.5%,4.33%,3.4%,1.5%,1.29%,78.4%,92.3%,97.5%,92.1%,87.2%,108%,81.4%,35.4%,3.62%,1.76%,1.28%
O=C(c1cncc(Br)c1)N1CCC(N2CCCC2)CC1,100%,118%,107%,106%,115%,106%,106%,107%,114%,99.7%,88.5%,98.4%,106%,107%,110%,105%,114%,117%,108%,117%,95.1%,77.2%,110%,95%,95%,105%,99%,112%,102%,98.7%,99.1%,91.2%,71.2%
CN(C)C/C=C/C(=O)Nc1ccc(C(=O)Nc2cccc(Nc3ncc(Cl)c(-c4c[nH]c5ccccc45)n3)c2)cc1,75.1%,79.4%,90%,62.5%,85.8%,47.6%,4.17%,3.85%,3.85%,3.77%,3.63%,97.5%,122%,128%,129%,120%,68%,5.08%,6.09%,5.71%,6.09%,6.13%,83.4%,76.3%,103%,73.3%,78.8%,43.6%,4.95%,4.94%,4.59%,4.42%,4.34%
Cc1nc(-c2ccc(OCC(C)C)c(C#N)c2)sc1C(=O)O,110%,110%,101%,120%,115%,104%,122%,108%,106%,110%,113%,125%,112%,116%,104%,105%,104%,121%,105%,105%,122%,124%,107%,132%,121%,131%,127%,111%,106%,111%,126%,132%,138%
CN(CCOc1ccc(CC2SC(=O)NC2=O)cc1)c1ccccn1 (stereo unspecified),116%,117%,121%,106%,113%,123%,117%,115%,124%,121%,116%,76.7%,94.7%,85.4%,102%,84.2%,81.9%,90.5%,95.1%,85.7%,97.3%,104%,107%,119%,113%,117%,113%,107%,112%,106%,121%,114%,122%
CCn1nnc2c(N3CCOCC3)nc(-c3ccc(NC(=O)Nc4ccc(C(=O)N5CCN(C)CC5)cc4)cc3)nc21,109%,104%,87.4%,82.6%,61.5%,58.2%,103%,54.3%,54.1%,49.8%,41.9%,124%,116%,90.5%,81.3%,64.2%,56.2%,114%,49.5%,48.4%,46.4%,40.5%,101%,95.9%,79%,71.6%,60.3%,54.3%,123%,50.8%,49.5%,44.9%,47.8%
Nc1ccc(C(=O)c2cc3c(ccc4ccccc43)[nH]2)cc1,,,,,,,,,,,,118%,137%,124%,130%,129%,102%,109%,110%,32.1%,15.9%,8.45%,121%,130%,117%,126%,138%,104%,100%,95%,27.9%,12.1%,11.3%
